Reference: PubChem BioAssay AID2060618 (Molecular Pharmacology Branch, DTP, NCI, 2025)
Where “and” joins values, the source holds several entries; their conditions need not be identical. Equal values may be shown once.

Test system: 454973-116-R2-J3-PDC spheroids, percent test/control viability
Assay: Anticancer human tumor 454973-116-R2-J3-PDC patient-derived pancreatic carcinoma cell line growth inhibition [CLK]
Details: spheroids with HUVEC and MSC; for viability, T/C: stronger effect = lower value
Outline: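 Patient-derived tumor cells grown as complex spheroids with HUVEC endothelial cells and mesenchymal stem cells, treated with drug combinations. Concentrations descend in half-log steps from near clinical Cmax, or from 10 microM if Cmax unknown.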

[1] = curve of first compound, second compound 0.0316 µM
[2] = curve of first compound, second compound 0.1 µM
[3] = curve of first compound, second compound 0.316 µM
[4] = curve of first compound, second compound 1 µM
[5] = curve of first compound, second compound 3.16 µM
[6] = curve of first compound, second compound 10 µM
[7] = second compound 0.0316 µM, first compound 0.0316 µM
[8] = second compound 0.0316 µM, first compound 0.1 µM
[9] = second compound 0.0316 µM, first compound 0.316 µM
[10] = second compound 0.0316 µM, first compound 1 µM
[11] = second compound 0.0316 µM, first compound 3.16 µM
[12] = second compound 0.0316 µM, first compound 10 µM
[13] = second compound 0.1 µM, first compound 0.0316 µM
[14] = second compound 0.1 µM, first compound 0.1 µM
[15] = second compound 0.1 µM, first compound 0.316 µM
[16] = second compound 0.1 µM, first compound 1 µM
[17] = second compound 0.1 µM, first compound 3.16 µM
[18] = second compound 0.1 µM, first compound 10 µM
[19] = second compound 0.316 µM, first compound 0.0316 µM
[20] = second compound 0.316 µM, first compound 0.1 µM
[21] = second compound 0.316 µM, first compound 0.316 µM
[22] = second compound 0.316 µM, first compound 1 µM
[23] = second compound 0.316 µM, first compound 3.16 µM
[24] = second compound 0.316 µM, first compound 10 µM
[25] = second compound 1 µM, first compound 0.0316 µM
[26] = second compound 1 µM, first compound 0.1 µM
[27] = second compound 1 µM, first compound 0.316 µM
[28] = second compound 1 µM, first compound 1 µM
[29] = second compound 1 µM, first compound 3.16 µM
[30] = second compound 1 µM, first compound 10 µM
[31] = second compound 3.16 µM, first compound 0.0316 µM
[32] = second compound 3.16 µM, first compound 0.1 µM
[33] = second compound 3.16 µM, first compound 0.316 µM
[34] = second compound 3.16 µM, first compound 1 µM
[35] = second compound 3.16 µM, first compound 3.16 µM
[36] = second compound 3.16 µM, first compound 10 µM
[37] = second compound 10 µM, first compound 0.0316 µM
[38] = second compound 10 µM, first compound 0.1 µM
[39] = second compound 10 µM, first compound 0.316 µM
[40] = second compound 10 µM, first compound 1 µM
[41] = second compound 10 µM, first compound 3.16 µM
[42] = second compound 10 µM, first compound 10 µM
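Also: spheroids exposed to compounds for 7 days before readout.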

CC(=O)O[C@H]1C(=O)[C@@]2(C)[C@H]([C@H](OC(=O)c3ccccc3)[C@]3(O)C[C@H](OC(=O)[C@H](O)[C@@H](NC(=O)c4ccccc4)c4ccccc4)C(C)=C1C3(C)C)[C@]1(OC(C)=O)CO[C@@H]1C[C@@H]2O + CN1CCN(c2cc(C(=O)Nc3cc4cc(-c5cnn(C)c5)ccc4cn3)ccn2)CC1 showed an IC50 [1] of under 31.6 nM, an IC50 [2] of under 31.6 nM and an IC50 [3] of under 31.6 nM. The IC50 [4] was under 31.6 nM, the IC50 [5] was under 31.6 nM and the IC50 [6] was under 31.6 nM. The viability, T/C [7] was 7.05%, the viability, T/C [8] was 6.65% and the viability, T/C [9] was 6.57%. It also gave a viability, T/C [10] of 6.34%, a viability, T/C [11] of 6.67% and a viability, T/C [12] of 12.9%. The viability, T/C [13] was 5.8%, the viability, T/C [14] was 5.47% and the viability, T/C [15] was 3.95%. For the same compound, the viability, T/C [16] was 5.69%, the viability, T/C [17] was 4.88% and the viability, T/C [18] was 6.14%. For the same compound, the viability, T/C [19] was 1.6%, the viability, T/C [20] was 1.85% and the viability, T/C [21] was 2.44%. The viability, T/C [22] was 1.75%, the viability, T/C [23] was 1.77% and the viability, T/C [24] was 1.9%. For the same compound, the viability, T/C [25] was 0.11%, the viability, T/C [26] was 0.1% and the viability, T/C [27] was 0.92%. It also gave a viability, T/C [28] of 0.07%, a viability, T/C [29] of 0.08% and a viability, T/C [30] of 0.09%. The viability, T/C [31] was 0.14%, the viability, T/C [32] was 0.12% and the viability, T/C [33] was 0.21%. It also gave a viability, T/C [34] of 0.12%, a viability, T/C [35] of 0.15% and a viability, T/C [36] of 0.13%. It also gave a viability, T/C [37] of 0.14%, a viability, T/C [38] of 0.17% and a viability, T/C [39] of 0.19%. The viability, T/C [40] was 1.2%, the viability, T/C [41] was 0.16% and the viability, T/C [42] was 2.06%.
CC1(C)CCC(CN2CCN(c3ccc(C(=O)NS(=O)(=O)c4ccc(NCC5CCOCC5)c([N+](=O)[O-])c4)c(Oc4cnc5[nH]ccc5c4)c3)CC2)=C(c2ccc(Cl)cc2)C1 + CNC(=O)c1ccc(Nc2nc(OC3CCCC3)c3c(-c4ccc5nc(C)oc5c4)c[nH]c3n2)c(OC)c1 gave an IC50 [1] of 6830 nM, an IC50 [2] of 6950 nM and an IC50 [3] of under 31.6 nM. It also gave an IC50 [4] of under 31.6 nM, an IC50 [5] of under 31.6 nM and an IC50 [6] of under 31.6 nM. It also gave a viability, T/C [7] of 95.9%, a viability, T/C [8] of 94.7% and a viability, T/C [9] of 103%. The viability, T/C [10] was 102%, the viability, T/C [11] was 112% and the viability, T/C [12] was 24.5%. The viability, T/C [13] was 96.3%, the viability, T/C [14] was 98.8% and the viability, T/C [15] was 93.9%. It also gave a viability, T/C [16] of 94%, a viability, T/C [17] of 102% and a viability, T/C [18] of 28.1%. It also gave a viability, T/C [19] of 37.5%, a viability, T/C [20] of 38.5% and a viability, T/C [21] of 37.6%. The viability, T/C [22] was 40.3%, the viability, T/C [23] was 32.5% and the viability, T/C [24] was 21.1%. For the same compound, the viability, T/C [25] was 27.2%, the viability, T/C [26] was 26.2% and the viability, T/C [27] was 28.3%. For the same compound, the viability, T/C [28] was 28.4%, the viability, T/C [29] was 28.3% and the viability, T/C [30] was 23.4%. For the same compound, the viability, T/C [31] was 29.2%, the viability, T/C [32] was 25.2% and the viability, T/C [33] was 26.9%. For the same compound, the viability, T/C [34] was 23.9%, the viability, T/C [35] was 27.6% and the viability, T/C [36] was 22.3%. For the same compound, the viability, T/C [37] was 26.6%, the viability, T/C [38] was 26.6% and the viability, T/C [39] was 24.4%. It also gave a viability, T/C [40] of 21.8%, a viability, T/C [41] of 26.1% and a viability, T/C [42] of 21.6%.
CCN1CCN(Cc2ccc(Nc3ncc(F)c(-c4cc(F)c5nc(C)n(C(C)C)c5c4)n3)nc2)CC1 + CN1CCN(c2cc(C(=O)Nc3cc4cc(-c5cnn(C)c5)ccc4cn3)ccn2)CC1 was tested, and the IC50 [1] was over 1000 nM, the IC50 [2] was over 1000 nM and the IC50 [3] was under 3.16 nM. For the same compound, the IC50 [4] was under 3.16 nM, the IC50 [5] was under 3.16 nM and the IC50 [6] was under 3.16 nM. The viability, T/C (second compound 0.0316 µM, first compound 0.00316 µM) was 90.9%, the viability, T/C (second compound 0.0316 µM, first compound 0.01 µM) was 93.5% and the viability, T/C [7] was 78.7%. For the same compound, the viability, T/C [8] was 79.1%, the viability, T/C [9] was 71% and the viability, T/C [10] was 62.2%. For the same compound, the viability, T/C (second compound 0.1 µM, first compound 0.00316 µM) was 77.8%, the viability, T/C (second compound 0.1 µM, first compound 0.01 µM) was 78.5% and the viability, T/C [13] was 70.6%. The viability, T/C [14] was 81.2%, the viability, T/C [15] was 63.5% and the viability, T/C [16] was 66.9%. The viability, T/C (second compound 0.316 µM, first compound 0.00316 µM) was 2.22%, the viability, T/C (second compound 0.316 µM, first compound 0.01 µM) was 3.67% and the viability, T/C [19] was 6.55%. For the same compound, the viability, T/C [20] was 7.25%, the viability, T/C [21] was 24.6% and the viability, T/C [22] was 13.8%. The viability, T/C (second compound 1 µM, first compound 0.00316 µM) was 0.14%, the viability, T/C (second compound 1 µM, first compound 0.01 µM) was 1.49% and the viability, T/C [25] was 2.77%. The viability, T/C [26] was 0.19%, the viability, T/C [27] was 0.21% and the viability, T/C [28] was 0.24%. The viability, T/C (second compound 3.16 µM, first compound 0.00316 µM) was 0.15%, the viability, T/C (second compound 3.16 µM, first compound 0.01 µM) was 0.31% and the viability, T/C [31] was 0.58%. For the same compound, the viability, T/C [32] was 0.16%, the viability, T/C [33] was 0.2% and the viability, T/C [34] was 0.28%. The viability, T/C (second compound 10 µM, first compound 0.00316 µM) was 0.13%, the viability, T/C (second compound 10 µM, first compound 0.01 µM) was 0.22% and the viability, T/C [37] was 0.24%. The viability, T/C [38] was 0.42%, the viability, T/C [39] was 0.21% and the viability, T/C [40] was 3.78%.
In the case of NC(=O)C(=Cn1cnc(-c2cc(C(F)(F)F)cc(C(F)(F)F)c2)n1)c1cncnc1, the viability, T/C (compound 0.00949 µM) is reported as 97.3% and 100%, the viability, T/C (compound 0.03 µM) is reported as 97% and 95.2% and the viability, T/C (compound 0.0949 µM) is reported as 83.1% and 78.2%. For the same compound, the viability, T/C (compound 0.3 µM) was 63.3% and 48.4%, the viability, T/C (compound 0.949 µM) was 42.4% and 35.4% and the viability, T/C (compound 3 µM) was 21.7% and 10.8%. For the same compound, the IC50 (curve of compound) was 614 nM and 362 nM.
With COc1c(OCCCN2CCOCC2)ccc2c3n(c(=NC(=O)c4cnc(N)nc4)nc12)CCN3 the viability, T/C (compound 0.00316 µM) was 97.1% and 109%, the viability, T/C (compound 0.01 µM) was 98.4% and 90.9% and the viability, T/C (compound 0.0316 µM) was 99.2% and 75.2%. The viability, T/C (compound 0.1 µM) was 44% and 39%, the viability, T/C (compound 0.316 µM) was 23.6% and 20.3% and the viability, T/C (compound 1 µM) was 8.06% and 7.21%. For the same compound, the IC50 (curve of compound) was 88.4 nM and 72.4 nM.
